Test results as given in patent publication US10238623B2, “C14-hydroxyl esterified amino acid derivative of triptolide, and preparation method and use thereof” (HANGZHOU WEBEN PHARMACEUTICALS INC, priority 2015, dated 2019).
Where “and” joins values, the source holds several entries; their conditions need not be identical. Identical values can stand only once.

Legend:
[1] = tested on: RNA polymerase II (Pol II); test: Immunoblot of Pol II level in THP-1 cells, 48 h; type: cell-based, human; conditions: 160 nM
Description: (§1) Well-grown leukemia cells were taken and seeded into wells of a 6-well cell culture plate, with a density of 1×10^6/ml. The medium was 1640 cell medium containing 10% fetal bovine serum. 14-D-Valine-TPL with different concentrations was added, and after being uniformly mixed, the plate was placed in a carbon dioxide (5% CO2) cell incubator, and incubated at 37° C. for 48 hours. Cellular proteins were then extracted, and the immunoblot technique was used to detect the expression levels of XPB and Pol II.

c-myc = test: Immunoblot of c-myc level in K562 cells, 48 h; type: cell-based, human; conditions: 80 nM
Description: as §1, with “level” for “levels”, “c-myc.” for “XPB and Pol II.”

[2] = tested on: human acute monocytic leukemia THP-1 cells; test: THP-1 subcutaneous xenograft in NOD/SCID mice; type: in vivo; conditions: for Tumor weight: THP-1, individual mice, end of experiment
Description: 7-week old female NOD/SCID mice were taken and inoculated subcutaneously with 1×10^7 cells (0.2 ml) per mouse in axilla, with human acute myelogenous leukemia KG-1a cells on the left and human acute monocytic leukemia THP-1 cells on the right. When tumors grew to a tumor size of around 0.5 cm, the mice were randomized into groups with 3 mice each. An equivalent amount of PBS was used for the control group, and the 14-D-Valine-TPL group was divided into two groups with 0.2 mg/kg body weight and 0.4 mg/kg body weight: intragastric administration 2 times a day (one at 8 a.m. and one at 4 p.m.) for consecutive 14 days of treatment. An observation was made for total 30 days, during which the conditions of the mice such as tumor size, weight, activity, diet, and the like were measured. At the end of the experiment, the mice were sacrificed, tumor tissues were taken and the tumors were weighed, and major organs and tissues of the mice such as liver, spleen, heart, lung, large intestine, small intestine, and the like were examined.

CC(C)[C@@H](N)C(=O)O[C@@H]1[C@@]2(C(C)C)O[C@H]2[C@@H]2O[C@]23[C@]12O[C@H]2C[C@H]1C2=C(CC[C@@]13C)C(=O)OC2 [14-D-Valine-TPL, 14-Dextro-Valine-Triptolide]
level of Pol II (immunoblot) [1]: significantly inhibited
level of c-myc (immunoblot) (c-myc): significantly inhibited
Tumor weight ([2]; trifluoroacetate 0.2 mg/kg intragastric 2 times a day, 14 days, listed as DV): 0 g (3×) and 0.21 g and 0.06 g and 0.28 g
Tumor weight ([2]; trifluoroacetate 0.4 mg/kg intragastric 2 times a day, 14 days): 0 g
growth of THP-1 in mice in vivo (in words) ([2]; THP-1 xenograft, intragastric 2 times a day, 14 days, dose-dependent effect): significantly inhibit the growth
regression of THP-1 xenograft tumors ([2]; dose of 0.4 mg per kilogram of the body weight): complete regression
